Format in all cases: in vivo, BDF1 mice
Experiment [1] deals with lymphocytic leukemia P388. Put plainly: Lymphocytic Leukemia P388 Test. Conditions: Table IX. From the text: (§1) Certain in vivo testing systems and protocols have been developed by the National Cancer Institute for testing compounds to determine their suitability as anti-neoplastic agents. These have been reported in "Cancer Chemotherapy Reports", Part III, Vol. 3, No. 2 (1972), Geran, et al. These protocols have established standardized screening tests which are generally followed in the field of testing for antitumor agents. Of these systems, lymphocytic leukemia P388, melanotic melanoma B16, L1210 leukemia and colon 26 adenocarcinoma are particularly significant to the present invention. These neoplasms are utilized for testing as transplantable tumors in mice. Generally, significant anti-tumor activity, shown in these protocols by a percentage increase of mean survival times of the treated animals (T) over the control animals (C), is indicative of similar results in human leukemias and solid tumors.
The animals used were BDF1 mice, all of one sex, weighing a minimum of 17 g and all within a 3 g weight range. There were 5 or 6 mice per test group. The tumor transplant was by intraperitoneal injection of 0.5 ml of dilute ascitic fluid containing 10^6 cells of lymphocytic leukemia P388. LL-E33288 antibiotics were tested in the P388 system both as the individual β1-Br and […] components and as a complex of all components (Bromo-complex). The test compounds were administered intrapertioneally at a volume of 0.5 ml in 0.2% Klucel in normal saline on days 1, 5 and 9 (relative to tumor inoculation) at the indicated doses. The mice were weighed and the survivors recorded on a regular basis for 30 days. The median survival time and the ratio of survival time for treated (T)/control (C) animals were calculated. The positive control compound was Cisplatin given as an intraperitioneal injection in 0.5 ml of 0.2% Klucel on days 1, 5 and 9 at the indicated doses.
If T/C X 100 (%) is 125 or over, the tested compound is considered to have significant anti-tumor activity.
(§2) In the same manner, the following iodo-components were tested for antineoplastic activity.

Experiment [2] has as its system lymphocytic leukemia L1210. Put plainly: Lymphocytic Leukemia L1210 Test.
Text: as §1
The animals used were BDF1 mice, all of one sex, weighing a minimum of 17 g and all within a 3 g weight range. There were 6 mice in each test group and 18 in control groups. The tumor transplant was by intraperitoneal injection of 0.5 ml of lymphocytic leukemia L1210 at a concentration of 10^5 cells per mouse. LL-E33288 antibiotics were tested in the L1210 system both as the individual β1-Br component and as a complex of all components (Bromo-complex). The test compounds were administered on days 1, 5 and 9 or days 1 through 9 (relative to tumor inoculation) at various doses. The mice were weighed and survivors recorded on a regular basis for 30 days. The median survival time and the ratio of survival time for treated (T)/control (C) animals were calculated. The positive control compound was 1,4-dihydroxy-5,8-bis[[2-(2-hydroxyethylamino)ethyl]amino]anthraquinone dihydrochloride or Cisplatin given intraperitoneally at the indicated dose. If T/C X 100 (%) is 125 or over, the tested compound is considered to have significant anti-tumor activity.
as §2

A further experiment deals with melanotic melanoma B16. Put plainly: Melanotic Melanoma B16 Test.
Text: as §1
The animals used were BDF1 mice, all of the same sex, weighing a minimum of 17 g and all within a 3 g weight range. There are normally 6 animals per test group. A 1 g portion of melanotic melanoma β16 tumor was homogenized in 10 ml of cold balanced salt solution and a 0.5 ml aliquot of the homogenate was implanted intraperitoneally into each of the test mice. LL-E33288 antibiotics were tested in the β16 system both as the individual β1-Br and γ1-Br components and as a complex of all components (Bromo-complex). The test compounds were administered intraperitioneally on days 1 through 9 (relative to tumor inoculation) at various doses. The mice were weighed and survivors recorded on a regular basis for 60 days. The median survival time and the ratio of survival time for treated (T)/control (C) animals were calculated. The positive control compounds were Cisplatin or Adriamycin. The results of this test appear in Table V. If T/C X 100 (%) is 125 or over, the tested compound is considered to have significant anti-tumor activity.
as §2

The mark [3] stands for this setting: Test 1, dose 1.6 mg/kg, control 13 days.
[4] abbreviates: Test 2, dose 0.8 mg/kg, control 11 days.
Where [5] appears, read: Test 2, dose 1.6 mg/kg, control 11 days.
The mark [6] stands for this setting: Table VI, days 1, 5 and 9 or days 1 through 9, dose 0.4 mg/kg, control 16.7 days.
Where [7] appears, read: Table VI, days 1, 5 and 9 or days 1 through 9, dose 0.8 mg/kg, control 16.7 days.
Setting [8] is: Table VI, i.p., dose 1.6 mg/kg, control 16.7 days.
Where [9] appears, read: Table XI, dose 0.4 mg/kg, control 9 days.
The mark [10] stands for this setting: Table XI, dose 0.8 mg/kg, control 9 days.
Setting [11] is: Table XI, dose 1.6 mg/kg, control 9 days.
Where [12] appears, read: Table XI, dose 3.2 mg/kg, control 9 days.
Where [13] appears, read: Table V, dose 0.4 mg/kg, control 19 days, survivors recorded for 60 days.
Setting [14] is: Table V, dose 0.8 mg/kg, control 19 days, survivors recorded for 60 days.
Setting [15] is: Table X, dose 0.2 mg/kg, control value not given.
Setting [16] is: Table X, dose 0.4 mg/kg, control value not given.
Where [17] appears, read: Table X, dose 0.8 mg/kg, control value not given.

Each structure is given as a SMILES string. Bounds are passed on as bounds.

Regarding `Cl.Cl.O=C1c2c(O)ccc(O)c2C(=O)c2c(NCCNCCO)ccc(NCCNCCO)c21` [Novantrone®, 1,4-dihydroxy-5,8-bis[[2-(2-hydroxyethylamino)ethyl]amino]anthraquinone dihydrochloride], the “Median Survival” value is 22.5 days in experiment [1] (setting [3]); 16 days in experiment [1] (setting [4]); 19 days in experiment [1] (setting [5]); 30 days in experiment [2] (setting [6]); 30 days in experiment [2] (setting [7]); 30 days in experiment [2] (setting [8]). Also, the “Median Survival” value in experiment [2] (setting [9]) was 11 days; in experiment [2] (setting [10]) it was 12 days; in experiment [2] (setting [11]), 11.5 days; in experiment [2] (setting [12]) it was 15 days. Further, the “T/C x 100” value in experiment [1] (setting [3]) is on record as 173%; in experiment [1] (setting [4]) it was 145%; in experiment [1] (setting [5]), 173%; in experiment [2] (setting [6]), 180%; in experiment [2] (setting [7]), 180%; in experiment [2] (setting [8]), 180%. For the same compound, the “T/C x 100” value in experiment [2] (setting [9]) is 122%; in experiment [2] (setting [10]), 133%; in experiment [2] (setting [11]) it was 128%; in experiment [2] (setting [12]), 167%.
For the compound `COc1cccc2c1C(=O)c1c(O)c3c(c(O)c1C2=O)C[C@@](O)(C(=O)CO)C[C@@H]3O[C@H]1C[C@H](N)[C@H](O)[C@H](C)O1` [Adriamycin], the “Median Survival” value with melanotic melanoma B16 (setting [13]) was more than 60 days; in the experiment on melanotic melanoma B16 (setting [14]) it was more than 60 days; in the experiment with melanotic melanoma B16 (setting [15]), 34.5 days; in the experiment on melanotic melanoma B16 (setting [16]) it was 40 days; in the experiment with melanotic melanoma B16 (setting [17]), 48 days. Moreover, the “T/C x 100” value in the experiment with melanotic melanoma B16 (setting [13]) is more than 316%; with melanotic melanoma B16 (setting [14]), more than 316%; in the experiment with melanotic melanoma B16 (setting [15]), 203%; in the experiment with melanotic melanoma B16 (setting [16]), 235%; with melanotic melanoma B16 (setting [17]), 282%.
